Key:
[1] = tested on: Mouse cortical neurons (E16.5); test: Micro Electrode Array (MEA) recording of neuronal firing; format: cell-based
Experimental: We assessed the cytotoxicity of compound 2a, measuring survival of Neuro2a cells exposed to increasing 2a concentrations. […] We next checked for toxic effects of compound 2a in primary neuronal cultures coupled with Micro Electrode Array (MEA) devices. Mouse cortical neurons (E16.5) were plated on MEAs, kept in culture for 14 days to develop firing activity and recorded in presence of 2a.
Primary neuronal cultures were established from the cerebral cortex of E16.5 C57BL6J embryos. Upon dissection, cells were plated on MEA biochips (60 electrode MEA biochips with 200 µm electrode spacing and 30 µm electrodes diameter with an integrated reference electrode, Multichannel Systems GmbH) at the density of 3 × 10^5 cells/MEA and kept in Neurobasal medium supplemented with B27 for 14 days. At day 14 neuronal cultures were exposed to increasing concentration of compound 2a (1, 3, 10, 30, and 100 µM) in Krebs–Ringer–Hepes buffer (KRH, 130 mM NaCl, 5 mM KCl, 1.2 mM KH2PO4, 1.2 mM MgSO4, 2 mM CaCl2, 25 mM Hepes, 0.6% glucose, 1% glutamine, Sigma–Aldrich). Firing activity was recorded using a pre-amplifier stage (MEA-1060-Inv-BC-Standard, gain: 55, bandwidth: 300 Hz–8 kHz, MCS GmbH), an amplification and filtering stage (FA64S, gain 20, bandwidth: 10 Hz–8 kHz, MCS GmbH) and a data acquisition device (sampling frequency: 25 kHz). Then, off-line signal processing was performed, and raw data were analyzed by MC-Rack Software version 4.6.2 (MCS GmbH).
Panels a and b; neuronal activityfrom the same electrode of a representative MEA biochip (3x105 cortical neurons/chip, n=5 independent chips from 2 independent experiments) treated with 2a, at the concentration of 1 µM (a) and 100 µM (b). Neurons received increasing amounts of lead 2a (1,3, 10, 30 and 100 µM) and were recorded every 5 min; c, quantifications of the firing activityreported as fold changes of spike numbers (box plots show median values; whiskers show 10-90 percentile) measured at the concentration of 1
µM. Kruskal-Wallis testfollowed by Dunn’s multiple comparison test was used to analyze the […]

[2] = tested on: SOD1^G93A-transfected Neuro2a cells; test: Lyso-tracker analysis of lysosomes in SOD1G93A-transfected Neuro2a cells; format: cell-based; conditions: 24 h starvation, 10µM
Experimental: Lysosomal alterations are early events in ALS[7],[56]. We speculated that an impairment of the retromer should alter protease trafficking via CI-MPR, and therefore disrupt lysosomal homeostasis. […] We transfected Neuro2a cells with plasmids encoding the Sh56-RNAi to downregulate VPS35. After 24 h of starvation, we analyzed the lysosomes using Lyso-tracker[58]. We observed enlarged and abnormally distributed lysosomes in cells with VPS35 interference by Sh56 (Supplementary Fig. 12a–c). […] We asked whether the overexpression of SOD1^G93A would also result in similar lysosomal alterations by transfecting Neuro2a cells with plasmids encoding SOD1^G93A, with or without compound 2a.
VPS35 knockdown impairs lysosomal stability
Panels a and b, Neuro2a cells (4x10^4cells/well) transfected with the scramble plasmid (0.5 µg/well, a)or with the VPS35 RNAi plasmids (Sh56, 0.5 µg/well, b) along with plasmid encoding the GFP (0.1 µg/well) and labelled with Lyso-tracker (75 nM). Quantifications of Lyso Tracker-covered areas (%± SD) in individual GFP+ cells were done on merged confocal images and data are shown in c (scramble: n=52 cells, Sh56: n=39 cells, data are collected from 3 independent experiments, p<0.0001). Protein lysates from Neuro2a cells (3x10^5 cells/well) receiving scramble or Sh56 plasmids (2 µg/well for 48h) were labelled for Ubiquitin and β-Actin (d). […]

## NC(N)=N/N=C/c1cccc(/C=N/N=C(N)N)c1 [compound 2a, phenyl-1,3-bis-guanylhydrazone]
[1]; 10µM
  neuronal firing: does not perturb neuronal firing
[1]; 100 μM of 2a
  neuronal firing (spikes): slight reduction of spikes
[1]; low concentrations of 2a
  neuronal firing: did not alter neuronal firing
[2]
  enlarged lysosomes (Lyso-tracker): significantly reverted this phenotype

— paper PMC7395176, “Retromer stabilization results in neuroprotection in a model of Amyotrophic Lateral Sclerosis” (Nature Communications, 2020)
